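How tested: cells in 96-well plates exposed to compound for 48 hours at five concentrations. Definition used: TGI = concentration required for complete inhibition of growth.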
Key:
Test in all cases: NCI tumour cell line growth inhibition, 48 h
[1] = tested on: OVCAR-5 ovarian
[2] = tested on: DLD-1 colon
[3] = tested on: SF-295 CNS
[4] = tested on: SNB-19 CNS
[5] = tested on: LOX IMVI melanoma
[6] = tested on: CAKI-1 renal
[7] = tested on: XF 498 CNS
[8] = tested on: DMS 273 small cell lung
[9] = tested on: 786-0 renal
[10] = tested on: MOLT-4 leukemia
[11] = tested on: UO-31 renal
[12] = tested on: NCI-H23 lung
[13] = tested on: RXF 393 renal
[14] = tested on: CCRF-CEM leukemia
[15] = tested on: LXFL 529 NSCLC
[16] = tested on: OVCAR-3 ovarian
[17] = tested on: KM20L2 colon
[18] = tested on: SK-MEL-28 melanoma
[19] = tested on: M19-MEL melanoma
[20] = tested on: A549 NSCLC
[21] = tested on: COLO 205 colon
[22] = tested on: NCI-H226 lung
[23] = tested on: NCI-H522 lung
[24] = tested on: HCT-116 colon
[25] = tested on: HOP-62 NSCLC
[26] = tested on: IGROV1 ovarian
[27] = tested on: EKVX NSCLC
[28] = tested on: HL-60(TB) leukemia
[29] = tested on: A498 renal
[30] = tested on: HT29 colon
[31] = tested on: ACHN renal
[32] = tested on: M14 melanoma
[33] = tested on: SK-MEL-5 melanoma
[34] = tested on: SK-MEL-2 melanoma
[35] = tested on: TK-10 renal
[36] = tested on: HOP-92 NSCLC
[37] = tested on: RXF-631 renal
[38] = tested on: U251 CNS
[39] = tested on: SN12C renal
[40] = tested on: SF-539 CNS
[41] = tested on: NCI-H460 lung
[42] = tested on: HOP-18 NSCLC
[43] = tested on: SF-268 CNS
[44] = tested on: UACC-62 melanoma
[45] = tested on: SK-OV-3 ovarian
[46] = tested on: KM12 colon
[47] = tested on: OVCAR-8 ovarian
[48] = tested on: HCT-15 colon
[49] = tested on: SR leukemia
[50] = tested on: UACC-257 melanoma
[51] = tested on: HCC-2998 colon
[52] = tested on: OVCAR-4 ovarian
[53] = tested on: MALME-3M melanoma
[54] = tested on: RPMI-8226 leukemia
[55] = tested on: K-562 leukemia
[56] = tested on: SNB-75 CNS
[57] = tested on: DMS 114 small cell lung
[58] = tested on: SW-620 colon
[59] = tested on: SNB-78 CNS

N#Cc1ccc(Sc2ccccc2)cc1C#N
TGI [1]: > 100 µM
TGI [2]: > 100 µM
TGI [3]: > 100 µM
TGI [4]: > 100 µM
TGI [5]: 41.7 µM
TGI [6]: > 100 µM
TGI [7]: 58 µM
TGI [8]: 36.6 µM
TGI [9]: 71 µM
TGI [10]: > 100 µM
TGI [11]: > 100 µM
TGI [12]: > 100 µM
TGI [13]: 81 µM
TGI [14]: 43.3 µM
TGI [15]: > 100 µM
TGI [16]: > 100 µM
TGI [17]: > 100 µM
TGI [18]: > 100 µM
TGI [19]: > 100 µM
TGI [20]: > 100 µM
TGI [21]: > 100 µM
TGI [22]: > 100 µM
TGI [23]: > 100 µM
TGI [24]: 40.6 µM
TGI [25]: > 100 µM
TGI [26]: > 100 µM
TGI [27]: > 100 µM
TGI [28]: > 100 µM
TGI [29]: > 100 µM
TGI [30]: > 100 µM
TGI [31]: > 100 µM
TGI [32]: > 100 µM
TGI [33]: > 100 µM
TGI [34]: > 100 µM
TGI [35]: > 100 µM
TGI [36]: 74.4 µM
TGI [37]: > 100 µM
TGI [38]: > 100 µM
TGI [39]: > 100 µM
TGI [40]: 47.4 µM
TGI [41]: 46.6 µM
TGI [42]: > 100 µM
TGI [43]: 51.6 µM
TGI [44]: > 100 µM
TGI [45]: > 100 µM
TGI [46]: > 100 µM
TGI [47]: > 100 µM
TGI [48]: 30.6 µM
TGI [49]: 39.9 µM
TGI [50]: > 100 µM
TGI [51]: > 100 µM
TGI [52]: > 100 µM
TGI [53]: > 100 µM
TGI [54]: 53.9 µM
TGI [55]: > 100 µM
TGI [56]: 52.1 µM

O=S(=O)(c1ccccc1)C1CN2OC1(S(=O)(=O)c1ccccc1)CC21CCCCC1 (stereo unspecified)
TGI [1]: > 100 µM
TGI [2]: > 100 µM
TGI [3]: > 100 µM
TGI [4]: > 100 µM
TGI [5]: > 100 µM
TGI [6]: > 100 µM
TGI [7]: > 100 µM
TGI [8]: > 100 µM
TGI [9]: > 100 µM
TGI [10]: > 100 µM
TGI [11]: > 100 µM
TGI [12]: > 100 µM
TGI [13]: > 100 µM
TGI [14]: > 100 µM
TGI [15]: > 100 µM
TGI [16]: > 100 µM
TGI [17]: > 100 µM
TGI [18]: > 100 µM
TGI [19]: > 100 µM
TGI [20]: > 100 µM
TGI [21]: > 100 µM
TGI [22]: > 100 µM
TGI [57]: > 100 µM
TGI [23]: > 100 µM
TGI [24]: > 100 µM
TGI [25]: > 100 µM
TGI [26]: > 100 µM
TGI [27]: > 100 µM
TGI [28]: > 100 µM
TGI [30]: > 100 µM
TGI [31]: > 100 µM
TGI [32]: > 100 µM
TGI [34]: > 100 µM
TGI [35]: > 100 µM
TGI [37]: > 100 µM
TGI [38]: > 100 µM
TGI [39]: > 100 µM
TGI [40]: > 100 µM
TGI [41]: > 100 µM
TGI [43]: > 100 µM
TGI [44]: > 100 µM
TGI [45]: > 100 µM
TGI [46]: > 100 µM
TGI [47]: > 100 µM
TGI [48]: > 100 µM
TGI [49]: > 100 µM
TGI [50]: > 100 µM
TGI [51]: > 100 µM
TGI [52]: > 100 µM
TGI [53]: > 100 µM
TGI [54]: > 100 µM
TGI [55]: > 100 µM
TGI [56]: > 100 µM
TGI [58]: > 100 µM

O=c1c(C(=Nc2ccccc2)c2ccccc2)c[nH]n1-c1ccccc1
TGI [1]: > 100 µM
TGI [2]: > 100 µM
TGI [3]: > 100 µM
TGI [4]: > 100 µM
TGI [5]: > 100 µM
TGI [6]: > 100 µM
TGI [7]: > 100 µM
TGI [8]: > 100 µM
TGI [59]: > 100 µM
TGI [9]: > 100 µM
TGI [10]: > 100 µM
TGI [11]: > 100 µM
TGI [12]: > 100 µM
TGI [13]: 72.8 µM
TGI [14]: > 100 µM
TGI [15]: > 100 µM
TGI [17]: > 100 µM
TGI [18]: > 100 µM
TGI [20]: > 100 µM
TGI [21]: > 100 µM
TGI [57]: > 100 µM
TGI [23]: > 100 µM
TGI [26]: > 100 µM
TGI [27]: > 100 µM
TGI [28]: > 100 µM
TGI [29]: > 100 µM
TGI [30]: > 100 µM
TGI [31]: > 100 µM
TGI [32]: > 100 µM
TGI [33]: > 100 µM
TGI [34]: > 100 µM
TGI [35]: > 100 µM
TGI [37]: > 100 µM
TGI [38]: > 100 µM
TGI [39]: > 100 µM
TGI [40]: > 100 µM
TGI [41]: > 100 µM
TGI [43]: > 100 µM
TGI [44]: > 100 µM
TGI [45]: > 100 µM
TGI [46]: > 100 µM
TGI [47]: > 100 µM
TGI [48]: > 100 µM
TGI [50]: > 100 µM
TGI [51]: > 100 µM
TGI [52]: > 100 µM
TGI [53]: > 100 µM
TGI [54]: > 100 µM
TGI [55]: > 100 µM
TGI [56]: > 100 µM
TGI [58]: > 100 µM

CCc1c(C)[nH]c2c1/C(=N/N=C1\CCCc3[nH]c(C)c(CC)c31)CCC2
TGI [1]: > 100 µM
TGI [2]: > 100 µM
TGI [3]: 46.6 µM
TGI [4]: > 100 µM
TGI [5]: 54.6 µM
TGI [6]: > 100 µM
TGI [7]: 34.4 µM
TGI [8]: 36.7 µM
TGI [59]: 85.8 µM
TGI [9]: > 100 µM
TGI [10]: 39.4 µM
TGI [11]: 39.5 µM
TGI [12]: 62.7 µM
TGI [13]: 70.5 µM
TGI [14]: 76.4 µM
TGI [15]: 30.2 µM
TGI [16]: 39.7 µM
TGI [17]: > 100 µM
TGI [18]: 35.9 µM
TGI [19]: 48.3 µM
TGI [20]: > 100 µM
TGI [21]: 41.6 µM
TGI [22]: 39.7 µM
TGI [57]: 34.1 µM
TGI [23]: 33.1 µM
TGI [24]: 50.5 µM
TGI [25]: > 100 µM
TGI [26]: 83.6 µM
TGI [27]: > 100 µM
TGI [28]: 36.4 µM
TGI [29]: 75 µM
TGI [30]: 81.3 µM
TGI [31]: 69.2 µM
TGI [32]: 41.2 µM
TGI [33]: 27.6 µM
TGI [34]: > 100 µM
TGI [35]: > 100 µM
TGI [36]: 51.5 µM
TGI [37]: > 100 µM
TGI [38]: 35.4 µM
TGI [39]: > 100 µM
TGI [40]: 81.5 µM
TGI [41]: 43.2 µM
TGI [43]: 61.9 µM
TGI [44]: 48.8 µM
TGI [45]: 78.4 µM
TGI [46]: 31.3 µM
TGI [47]: 78.2 µM
TGI [48]: 52.5 µM
TGI [50]: 31.9 µM
TGI [51]: > 100 µM
TGI [52]: 52 µM
TGI [53]: > 100 µM
TGI [54]: 33.9 µM
TGI [55]: > 100 µM
TGI [56]: 50.1 µM
TGI [58]: 78 µM

CC1(C)C(=NN=C(N)N)C(C)(C)C1=NN=C(N)N
TGI [1]: > 100 µM
TGI [2]: > 100 µM
TGI [3]: > 100 µM
TGI [4]: > 100 µM
TGI [5]: > 100 µM
TGI [6]: > 100 µM
TGI [7]: > 100 µM
TGI [8]: > 100 µM
TGI [59]: > 100 µM
TGI [9]: > 100 µM
TGI [10]: > 100 µM
TGI [11]: > 100 µM
TGI [12]: > 100 µM
TGI [13]: > 100 µM
TGI [15]: > 100 µM
TGI [16]: > 100 µM
TGI [17]: > 100 µM
TGI [18]: > 100 µM
TGI [19]: > 100 µM
TGI [20]: > 100 µM
TGI [21]: > 100 µM
TGI [22]: > 100 µM
TGI [57]: > 100 µM
TGI [23]: > 100 µM
TGI [24]: > 100 µM
TGI [26]: > 100 µM
TGI [28]: > 100 µM
TGI [30]: > 100 µM
TGI [31]: > 100 µM
TGI [32]: > 100 µM
TGI [33]: > 100 µM
TGI [35]: > 100 µM
TGI [36]: > 100 µM
TGI [37]: > 100 µM
TGI [38]: > 100 µM
TGI [39]: > 100 µM
TGI [40]: > 100 µM
TGI [41]: > 100 µM
TGI [43]: > 100 µM
TGI [44]: > 100 µM
TGI [45]: > 100 µM
TGI [46]: > 100 µM
TGI [47]: > 100 µM
TGI [48]: > 100 µM
TGI [49]: > 100 µM
TGI [50]: > 100 µM
TGI [51]: > 100 µM
TGI [52]: > 100 µM
TGI [53]: > 100 µM
TGI [54]: > 100 µM
TGI [55]: > 100 µM
TGI [56]: > 100 µM
TGI [58]: > 100 µM
